# Test results taken from patent publication US8314112B2 (Novartis AG, priority 2008, dated 2012).
# Biological target: T1, human ALK5 (kinase domain, ALK5 T204D) (Homo sapiens, UniProt P36897, T204D)
# T1 construct: The kinase domain of human ALK5 (amino acids 200-503); made in house; host or cells: insect cells (baculovirus)
# T1 sequence (P36897 200-503 T204D): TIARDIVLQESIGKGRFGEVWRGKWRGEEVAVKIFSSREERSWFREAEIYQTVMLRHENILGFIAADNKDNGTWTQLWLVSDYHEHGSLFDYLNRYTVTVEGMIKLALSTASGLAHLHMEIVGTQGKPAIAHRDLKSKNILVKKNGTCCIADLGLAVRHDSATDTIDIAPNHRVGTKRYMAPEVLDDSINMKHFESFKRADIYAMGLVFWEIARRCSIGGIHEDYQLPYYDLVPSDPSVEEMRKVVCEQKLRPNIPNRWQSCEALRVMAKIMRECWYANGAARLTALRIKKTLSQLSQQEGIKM
# Test: ALK5 kinase assay ([33P] phosphate incorporation into casein)
# Format: biochemical
# Settings: casein substrate, 1 μM unlabelled ATP
# Description: The kinase activity of ALK5 is assessed by measuring radiolabelled phosphate [33P] incorporation in to the generic substrate, casein. The kinase domain of human ALK5 (amino acids 200-503) is fused to an N-terminal histidine tag. The kinase activity of ALK5 is rendered constitutive via point mutation at amino acid 204 (threonine to aspartate modification, ALK5 T204D) and the kinase construct is engineered to be expressed from a baculovirus expression construct in insect cells. The purified, recombinantly-expressed histidine-tagged ALK5 T204D protein is dissolved at 5.4 mg/ml in 50 mM Tris-HCl pH 8.0, 150 mM NaCl, 5 mM DTT. ALK5 T204D is dissolved to 2.5 μg/ml in assay buffer (Assay buffer: 20 mM Tris-HCl pH 7.4, 10 mM MgCl2, 2 mM MnCl2) on the day of use.
# Test compounds and reference compounds are dissolved in assay buffer without DTT containing 5% (v/v) DMSO. Stock solutions of test and reference compounds are diluted in assay buffer with DTT (1.25 mM) containing 4.5% (v/v) DMSO. 10 μl of test or reference compound are added to the appropriate wells of 96 well U-bottomed plate. Total enzyme activity is determined by measuring ALK5 T204D activity in the absence of ALK5 kinase inhibitor reference compounds. Non-specific binding (NSB) is determined by measuring the activity of ALK5 T204D in the presence of ALK5 kinase inhibitor reference compounds. 10 μl of dephosphorylated casein stock solution (dephosphorylated casein is dissolved in ddH2O at 20 mg/ml) is added per well (200 μg/well final assay concentration). 20 μl of ALK5 T204D (2.5 μg/ml solution) is added per well (50 ng/well final assay concentration). The plates are left to incubate at room temperature for 10 minutes.
# 10 μl of ATP mix is added to the well to initiate the reaction (0.66 nM [^33P]ATP/1 μM unlabelled ATP/well final assay concentration). The ATP mix is prepared as follows, unlabelled ATP (3 mM) is dissolved in ddH2O and pH adjusted to 7.4. The stock concentration of [^33P]ATP is 10 μCi/μl. The appropriate volume of [^33P]ATP is added to unlabelled ATP solution such that the final assay concentration per well is 0.1 μCi. Following addition of the ATP mix, the plates are incubated at room temperature for 50 minutes. The kinase reaction is terminated by the addition of 50 μL Stop Buffer (20 mM Tris-HCl pH 7.4, 10 mM EDTA).
# 75 μl/well from the reaction plate is transferred to a Multiscreen-IP plate (MultiScreen-IP plates are prepared by added 50 μL of 70% (v/v) ethanol per well and incubated for 5 minutes at room temperature. The ethanol is removed by aspiration via a MultiScreen HTS Vaccum Manifold unit (Millipore, Cat no: MSVMHT500). The plates are washed twice by adding 200 μl/well ddH2O). The MultiScreen-IP plate is incubated at room temperature for 30 minutes to allowing binding of casein to the plate. The MultiScreen-IP plates are washed three times by adding 200 μl/well 100 mM phosphoric acid solution and the gasket is carefully removed from the back of the MultiScreen-IP plate and the plate dried in the oven for 30 minutes. The MultiScreen-IP plate is backsealed, 50 μL of Microscint™20 is added, then the plates are topsealed and radiolabelled casein detected and quantified on a TopCount™ plate-reader using the ^33P scintillation protocol.
row,IC50 [nM],SMILES
1,64,"Cc1cccc(-c2nc(-c3cncc(NC(=O)CCCN(C)C)c3)c3cc[nH]c3n2)n1 [Example 30, 4-Dimethylamino-N-{5-[2-(6-methyl-pyridin-2-yl)-7H-pyrrolo[2,3-d]pyrimidin-4-yl]-pyridin-3-yl}-butyramide]"
2,85,"Cc1cccc(-c2nc(-c3cncc(NC(=O)CCN(C)C)c3)c3cc[nH]c3n2)n1 [Example 31, 3-Dimethylamino-N-{5-[2-(6-methyl-pyridin-2-yl)-7H-pyrrolo[2,3-d]pyrimidin-4-yl]-pyridin-3-yl}-propionamide]"
3,762,"Cc1cccc(-c2nc(-c3cncc(-c4ccccc4C)c3)c3cc[nH]c3n2)n1 [Example 32, 2-(6-Methyl-pyridin-2-yl)-4-(5-o-tolyl-pyridin-3-yl)-7H-pyrrolo[2,3-d]pyrimidine]"
4,90,"Cc1cccc(-c2nc(-c3cncc(-c4ccccc4Cl)c3)c3cc[nH]c3n2)n1 [Example 33, 4-[5-(2-Chloro-phenyl)-pyridin-3-yl]-2-(6-methyl-pyridin-2-yl)-7H-pyrrolo[2,3-d]pyrimidine]"
5,51,"Cc1cccc(-c2nc(-c3cncc(-c4cccc(CN5CCN(C(C)C)CC5)c4)c3)c3cc[nH]c3n2)n1 [Example 34, 4-{5-[3-(4-Isopropyl-piperazin-1-ylmethyl)-phenyl]-pyridin-3-yl}-2-(6-methyl-pyridin-2-yl)-7H-pyrrolo[2,3-d]pyrimidine]"
6,44,"Cc1cccc(-c2nc(-c3cncc(-c4ccc(CN5CCN(C(C)C)CC5)cc4)c3)c3cc[nH]c3n2)n1 [Example 35, 4-{5-[4-(4-Isopropyl-piperazin-1-ylmethyl)-phenyl]-pyridin-3-yl}-2-(6-methyl-pyridin-2-yl)-7H-pyrrolo[2,3-d]pyrimidine]"
7,8,"CNCc1cccc(-c2cncc(-c3nc(-c4cccc(C)n4)nc4[nH]ccc34)c2)c1 [Example 36, Methyl-(3-{5-[2-(6-methyl-pyridin-2-yl)-7H-pyrrolo[2,3-d]pyrimidin-4-yl]-pyridin-3-yl}-benzyl)-amine]"
8,33,"Cc1cccc(-c2nc(-c3cncc(-c4cccc(CN(C)C)c4)c3)c3cc[nH]c3n2)n1 [Example 37, Dimethyl-(3-{5-[2-(6-methyl-pyridin-2-yl)-7H-pyrrolo[2,3-d]pyrimidin-4-yl]-pyridin-3-yl}-benzyl)-amine]"
9,12,"Cc1cccc(-c2nc(-c3cncc(-c4ccc(CN(C)C)cc4)c3)c3cc[nH]c3n2)n1 [Example 38, Dimethyl-(4-{5-[2-(6-methyl-pyridin-2-yl)-7H-pyrrolo[2,3-d]pyrimidin-4-yl]-pyridin-3-yl}-benzyl)-amine]"
10,6,"CNCc1ccc(-c2cncc(-c3nc(-c4cccc(C)n4)nc4[nH]ccc34)c2)cc1 [Example 39, Methyl-(4-{5-[2-(6-methyl-pyridin-2-yl)-7H-pyrrolo[2,3-d]pyrimidin-4-yl]-pyridin-3-yl}-benzyl)-amine]"
11,3,"Cc1cccc(-c2nc(-c3cncc(-c4ccc(C(=O)N5CCNCC5)cc4)c3)c3cc[nH]c3n2)n1 [Example 40, (4-{5-[2-(6-Methyl-pyridin-2-yl)-7H-pyrrolo[2,3-d]pyrimidin-4-yl]-pyridin-3-yl}-phenyl)-piperazin-1-yl-methanone]"
12,130,"Cc1cccc(-c2nc(-c3cncc(N4CCN(C)CC4)c3)c3cc[nH]c3n2)n1 [Example 41, 4-[5-(4-Methyl-piperazin-1-yl)-pyridin-3-yl]-2-(6-methyl-pyridin-2-yl)-7H-pyrrolo[2,3-d]pyrimidine]"
13,17,"CN1CCN(C(=O)c2ccc(-c3cncc(-c4nc(-c5ccccn5)nc5[nH]ccc45)c3)cc2)CC1 [Example 42, (4-Methyl-piperazin-1-yl)-{4-[5-(2-pyridin-2-yl-7H-pyrrolo[2,3-d]pyrimidin-4-yl)-pyridin-3-yl]-phenyl}-methanone]"
14,6,"CN1CCN(Cc2ccc(-c3cncc(-c4nc(-c5ccccn5)nc5[nH]ccc45)c3)cc2)CC1 [Example 43, 4-{5-[4-(4-Methyl-piperazin-1-ylmethyl)-phenyl]-pyridin-3-yl}-2-pyridin-2-yl-7H-pyrrolo[2,3-d]pyrimidine]"
